# Measurements: patent US11123335B2, “Method for preventing lung diseases in smokers and non-smokers using antihypertensive drug” (SEOUL NATIONAL UNIVERSITY R & DB FOUNDATION, priority 2015, dated 2021)
# Read-outs that look alike come from different tables or passages of the source.
# Legend:
# [1] = system: IGF2; test: NE-mediated IGF2 secretion in lung epithelial cells; format: cell-based, human; conditions: NE-treated lung epithelial cells
# Experimental: ELISA for IGF1, IGF2 and NE were performed using commercially available ELISA kits (R&D Systems, DSL or Abnova) according to the manufacturer's instruction.
# [2] = system: IGF-1R; test: NE-mediated IGF-1R activation in lung epithelial cells; format: cell-based, human; conditions: NE-treated lung epithelial cells
# Experimental: (§1) Cells were washed twice with ice-cold PBS, and then lysed with a modified RIPA buffer [50 mM Tris-HCl (pH 7.4), 150 mM NaCl, 1 mM EDTA, 0.25% sodium deoxycholate, 1% Triton X-100, a protease inhibitor cocktail, 100 mM NaF, 1 mM Na3VO4]. Lysates were centrifuged at 13,000 rpm for 15 to 20 minutes to harvest supernatants, and then the collected proteins were quantified using the BCA method. Equivalent amounts of the proteins were subjected to electrophoresis using 8-15% SDS-PAGE, and then transferred to a PVDF membrane. The membrane was washed with TBST (0.01% Tween-20-containing Tris-buffered saline), and blocked in a blocking buffer (diluted in TBST to contain 5% skim milk) at room temperature for 1 hour. The membrane was incubated with primary antibodies diluted in 3% BSA-containing TBST at 4° C. for 12 hours, and washed with TBST for over 1 hour. The membrane was incubated with secondary antibodies diluted in TBST containing 3% skim milk at room temperature for 1 to 2 hours, and washed with TBST for over 1 hour. The membrane was reacted in an ECL solution, and band visualization was carried out by exposure to an X-ray film.
# [3] = system: IGF-1R; test: IGF-1R phosphorylation on change of intracellular Ca2+ (Western blot); format: cell-based, human; conditions: HBE/p53i cells
# Experimental: as §1
# [4] = system: IGF2; test: IGF2 secretion in GFP-IGF2-overexpressing BEAS-2B cells; format: cell-based, human
# [5] = system: A/J mice; test: NNK lung carcinogenesis animal model; format: in vivo, mouse; conditions: NNK 3 μmol oral twice a week, test drug oral 6 times a week, 20 weeks
# Experimental: NNK (3 μmol) was orally administered to A/J mice twice a week, and a test drug was orally administered thereto 6 times a week for a total of 20 weeks. Afterward, the mice were sacrificed, lungs were extracted from the mice, and the produced tumors were counted. Lung paraffin blocks were prepared, four or more tissue sections were prepared at regular intervals, and then stained by H&E staining as described below. Numbers and sizes of the tumors were measured to calculate volumes of the tumors. Paraffin blocks were sliced to have a thickness of 4 μm, placed onto silane-coated slides, and then dried. The dried slide glasses were deparaffinized overnight in a 65° C. dry oven. Afterward, the slide glasses were dipped in xylene for 5 minutes twice. After deparaffinization, the slide glasses were sequentially hydrated with 100%, 95%, 70%, and 50% ethanol, stained with a Harris hematoxylin solution for 1.5 minutes, dipped in a 1% HCl alcohol solution and ammonia, and then counterstained with an eosin solution for 30 seconds. Afterward, the resulting tissue sections were sequentially dehydrated using 95% and 100% ethanol, transparentized with xylene, and then mounted. Images were captured using a microscope.
# [6] = system: lung epithelial cells; test: NNK-induced viability, colony formation and foci formation of lung epithelial cells; format: cell-based, human
# Experimental: (§2) Cells (2-3×10^3 cells) were seeded into 96-well plates, treated with a test drug diluted with a medium, and then incubated for 3 days. After incubation, the cells were treated with an MTT solution to have a final concentration of 200-500 μg/ml and incubated for 2 to 4 hours. After discarding the medium, produced formazan was dissolved in DMSO, and then the absorbance at 570 nm was measured. Alternatively, cells were seeded into 12- or 24-well plates, collected after a predetermined time after treatment with a test drug, and then counted using a hemocytometer. 100 to 300 cells were seeded into 6- or 12-well plates and then treated with NNK or NNK and a test drug for 2 to 3 weeks. After 2 to 3 weeks, Colony formation was observed and the colonies were counted after stained staining with crystal violet. Before the experiment, low-melting agar (final concentration of agar: 1%) was diluted with a medium, and then 1 ml of the resulting solution was added and solidified in each 24-well plate, resulting in bottom agar. 2,000 to 5,000 cells were mixed with the low melting agar (final concentration of agar: 0.35-0.4%), 500 μl of the resulting mixture was added onto each bottom agar. After solidification of the agar, the cells were treated with NNK or a test drug, which was diluted with a medium. After 2 to 4 weeks after treatment, colonies were stained with an MTT solution, observed, and then counted. Lung epithelial cells at 90 to 95% confluency were treated with a carcinogen diluted with a growth factor-free medium, or a carcinogen and a test drug. After 2 to 3 weeks, foci formation was observed.
# [7] = system: IGF-1R; test: NNK-induced IGF-1R activation in lung epithelial / lung cancer cells (Western blot); format: cell-based, human; conditions: NNK-treated BEAS-2B cells
# Experimental: as §1
# [8] = system: lung epithelial cells; test: Transformation of lung epithelial cells by stress hormones; format: cell-based, human; conditions: treatment with the stress hormone alone
# Experimental: as §2
# [9] = system: lung epithelial cells; test: NE-induced viability and colony formation of lung epithelial cells; format: cell-based, human; conditions: NE-treated lung epithelial cells
# Experimental: as §2, with “100 to 300 cells were seeded into 6- or 12-well plates and then treated with NNK or NNK and a test drug for 2 to 3 weeks.” left out, “counted.” for “counted. Lung epithelial cells at 90 to 95% confluency were treated with a carcinogen diluted with a growth factor-free medium, or a carcinogen and a test drug. After 2 to 3 weeks, foci formation was observed.”
smiles,measurement,setting,value
"CC(=O)OCOC(=O)CN(CC(=O)OCOC(C)=O)c1ccccc1OCCOc1ccccc1N(CC(=O)OCOC(C)=O)CC(=O)OCOC(C)=O [BAPTA-AM, 1,2-bis(2-aminophenoxy)ethane-N,N,N′,N′-tetraacetic acid tetrakis(acetoxymethyl ester)]",NE-mediated IGF2 secretion,[1],inhibited
same,NE-mediated IGF-1R activation,[2],inhibited
same,IGF-1R phosphorylation,[3],inhibited
same,NNK-increased IGF2 secretion,"[4]; GFP-IGF2-overexpressing BEAS-2B, with NNK",inhibited
"O=C(O)CN(CCOCCOCCN(CC(=O)O)CC(=O)O)CC(=O)O [EGTA, ethylene glycol tetraacetic acid]",NE-mediated IGF2 secretion,[1],inhibited
same,NE-mediated IGF-1R activation,[2],inhibited
same,IGF-1R phosphorylation,[3],inhibited
same,NNK-increased IGF2 secretion,[4],inhibited
C[C@H](CS)C(=O)N1CCC[C@H]1C(=O)O [captopril],NNK-induced tumorigenesis,[5],significantly suppressed
same,NNK-induced promotion of cell viability,[6],suppressed
same,NNK-induced promotion of colony formation,[6],suppressed
same,NNK-induced promotion of foci formation,[6],suppressed
same,NNK-mediated IGF-1R activation,[7],inhibited
C[C@]12CCC(=O)C=C1CC[C@@H]1[C@@H]2[C@@H](O)C[C@@]2(C)[C@H]1CC[C@]2(O)C(=O)CO [cortisol],"transformation of lung epithelial cells (viability, colony formation, foci formation)",[8],not by cortisol
CNC[C@H](O)c1ccc(O)c(O)c1 [epinephrine],"transformation of lung epithelial cells (viability, colony formation, foci formation)",[8],induced
C[C@H](CCC(=O)O)C[C@H](C)C[C@H](C)C(=O)/C=C(\O)[C@H](C)C[C@H](C)C/C=C/[C@@H](C)[C@@H](O)[C@@H](C)[C@@H](O)C[C@@H]1CC[C@@](C)([C@H]2CC[C@@](C)([C@@H](C)O)O2)O1 [ionomycin],IGF-1R phosphorylation,[3],increased
C[C@]1(O)C[C@@H](c2nc(-c3ccc4ccc(-c5ccccc5)nc4c3)c3c(N)nccn32)C1 [linsitinib],NE-induced increase in colony formation of lung epithelial cells,[9],significantly suppressed
same,NE-induced increase in viability of lung epithelial cells,[9],significantly suppressed
CCCCc1nc(Cl)c(CO)n1Cc1ccc(-c2ccccc2-c2nn[nH]n2)cc1 [losartan],NNK-induced tumorigenesis,[5],significantly suppressed
same,NNK-induced promotion of cell viability,[6],suppressed
same,NNK-induced promotion of colony formation,[6],suppressed
same,NNK-induced promotion of foci formation,[6],suppressed
same,NNK-mediated IGF-1R activation,[7],inhibited
COC(=O)C1=C(C)NC(C)=C(C(=O)OC)C1c1ccccc1[N+](=O)[O-] [nifedipine],NE-mediated IGF2 secretion,[1],inhibited
same,NE-mediated IGF-1R activation,[2],inhibited
C/C=C(/C)C(=O)O[C@H]1C(C)=C2[C@H]([C@@H]1OC(=O)CCCCCCC)[C@@](C)(OC(C)=O)C[C@H](OC(=O)CCC)[C@@]1(O)[C@H]2OC(=O)[C@@]1(C)O [thapsigargin],IGF-1R phosphorylation,[3],increased
